Data from patent US20090258069A1, “Delivery of LFA-1 antagonists to the gastrointestinal system” (priority 2008, published 2009).
Read-outs that look alike come from different tables or passages of the source.

What was measured:
[1] = tested on: human mononuclear cells (PBMC) stimulated with staphylococcal enterotoxin B (SEB); assay: cells; type: cell-based
[2] = biological target: T1, LFA-1 (Homo sapiens, UniProt P20701); details: at greater than 90% occupancy of LFA-1; cited from earlier work
T1 construct: greater than 90% occupancy of LFA-1 with efalizumab led to a greater than 50% clinical improvement in PASI score in a clinical trial; host or cells: leukocytes of psoriasis patients (in vivo)
T1 sequence (P20701 26-1170): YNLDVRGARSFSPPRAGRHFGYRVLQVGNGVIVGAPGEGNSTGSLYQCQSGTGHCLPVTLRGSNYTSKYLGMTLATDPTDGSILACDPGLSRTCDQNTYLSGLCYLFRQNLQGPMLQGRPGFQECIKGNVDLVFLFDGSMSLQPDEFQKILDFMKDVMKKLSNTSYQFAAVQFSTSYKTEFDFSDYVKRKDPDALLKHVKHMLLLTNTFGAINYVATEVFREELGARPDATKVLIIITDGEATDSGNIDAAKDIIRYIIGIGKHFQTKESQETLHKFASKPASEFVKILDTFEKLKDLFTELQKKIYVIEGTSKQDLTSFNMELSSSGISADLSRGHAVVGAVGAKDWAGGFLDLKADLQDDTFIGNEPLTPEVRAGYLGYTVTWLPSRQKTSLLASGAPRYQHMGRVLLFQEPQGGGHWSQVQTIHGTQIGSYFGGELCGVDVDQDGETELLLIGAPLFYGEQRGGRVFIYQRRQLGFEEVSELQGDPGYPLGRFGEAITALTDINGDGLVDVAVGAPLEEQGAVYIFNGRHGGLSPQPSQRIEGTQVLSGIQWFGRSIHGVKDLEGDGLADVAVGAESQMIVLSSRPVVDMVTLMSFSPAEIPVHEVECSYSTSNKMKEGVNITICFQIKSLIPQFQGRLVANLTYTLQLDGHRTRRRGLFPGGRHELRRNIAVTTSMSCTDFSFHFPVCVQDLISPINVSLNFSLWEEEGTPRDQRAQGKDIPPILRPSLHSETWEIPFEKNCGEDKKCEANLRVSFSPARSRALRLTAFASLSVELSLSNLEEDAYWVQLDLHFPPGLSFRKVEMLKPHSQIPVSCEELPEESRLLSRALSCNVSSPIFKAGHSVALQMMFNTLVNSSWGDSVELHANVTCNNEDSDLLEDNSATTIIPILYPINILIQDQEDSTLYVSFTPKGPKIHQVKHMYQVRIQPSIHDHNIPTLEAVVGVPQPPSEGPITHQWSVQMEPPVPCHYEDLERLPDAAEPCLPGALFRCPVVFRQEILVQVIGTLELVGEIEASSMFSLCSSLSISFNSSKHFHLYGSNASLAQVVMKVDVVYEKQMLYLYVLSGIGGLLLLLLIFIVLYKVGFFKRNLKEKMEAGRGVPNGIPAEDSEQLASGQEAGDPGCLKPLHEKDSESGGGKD
T1 sequence (P05107 23-769 partner): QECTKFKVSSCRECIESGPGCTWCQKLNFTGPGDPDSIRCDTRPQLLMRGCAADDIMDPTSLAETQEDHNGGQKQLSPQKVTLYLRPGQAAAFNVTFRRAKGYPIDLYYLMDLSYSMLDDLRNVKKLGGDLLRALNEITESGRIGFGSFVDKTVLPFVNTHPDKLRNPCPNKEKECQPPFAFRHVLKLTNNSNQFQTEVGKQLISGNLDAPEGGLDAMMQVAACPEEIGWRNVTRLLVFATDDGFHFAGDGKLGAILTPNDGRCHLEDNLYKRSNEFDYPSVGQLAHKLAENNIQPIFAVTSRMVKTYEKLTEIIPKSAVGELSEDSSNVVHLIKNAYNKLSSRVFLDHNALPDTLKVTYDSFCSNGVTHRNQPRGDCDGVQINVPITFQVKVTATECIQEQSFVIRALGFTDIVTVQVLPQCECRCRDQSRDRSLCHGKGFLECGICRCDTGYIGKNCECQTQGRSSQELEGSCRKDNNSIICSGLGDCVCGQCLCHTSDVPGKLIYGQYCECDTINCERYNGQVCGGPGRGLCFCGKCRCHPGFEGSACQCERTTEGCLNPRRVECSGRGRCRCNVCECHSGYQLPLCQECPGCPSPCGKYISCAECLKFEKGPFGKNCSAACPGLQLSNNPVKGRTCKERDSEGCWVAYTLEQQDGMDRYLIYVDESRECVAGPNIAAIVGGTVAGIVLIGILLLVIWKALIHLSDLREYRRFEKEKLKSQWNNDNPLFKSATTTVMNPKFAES

Molecule | EC50 ([1]; read-out: EC50 Cytokine Release GM-CSF) | EC50 ([1]; read-out: EC50 Cytokine Release IFNγ) | EC50 ([1]; read-out: EC50 Cytokine Release IL-1α) | EC50 ([1]; read-out: EC50 Cytokine Release IL-1β) | EC50 ([1]; read-out: EC50 Cytokine Release IL-2) | EC50 ([1]; read-out: EC50 Cytokine Release IL-3) | EC50 ([1]; read-out: EC50 Cytokine Release IL-4) | EC50 ([1]; read-out: EC50 Cytokine Release IL-5) | EC50 ([1]; read-out: EC50 Cytokine Release IL-6) | EC50 ([1]; read-out: EC50 Cytokine Release IL-10) | EC50 ([1]; read-out: EC50 Cytokine Release IL-12p40) | EC50 ([1]; read-out: EC50 Cytokine Release IL-13) | EC50 ([1]; read-out: EC50 Cytokine Release IP-10) | EC50 ([1]; read-out: EC50 Cytokine Release MCP-1) | EC50 ([1]; read-out: EC50 Cytokine Release MIP-1α) | EC50 ([1]; read-out: EC50 Cytokine Release TNF-α) | clinical improvement in PASI score [2]
O=C(NC(Cc1cc(=O)[nH]c2ccccc12)C(=O)O)c1ccc(Cl)cc1 (centres unmarked) [Rebamipide, reference compound] | > 1000 µM | > 1000 µM | > 1000 µM | > 1000 µM | > 1000 µM | > 1000 µM | > 1000 µM | > 1000 µM | > 1000 µM | > 1000 µM | > 1000 µM | > 1000 µM | > 1000 µM | > 1000 µM | > 1000 µM | > 1000 µM | 
efalizumab: antibody binding LFA-1, clinical trial in plaque psoriasis |  |  |  |  |  |  |  |  |  |  |  |  |  |  |  |  | greater than 50%
